System: S6K
Test: Western blot of S6K phosphorylation after TGF-β2 stimulation in iFECD
Type: cell-based, human
Settings: 3 pmol mTOR siRNA, FIG. 6
Description: The medium was removed from a culture dish in which iFECDs were being cultured, and the cells were supplemented with 1×PBS (−) that was preheated to 37° C., and were washed. This was repeated twice. The cells were supplemented again with 1×PBS (−) and incubated for 3 minutes at 37° C. (5% CO2). After removing the PBS (−), the cells were supplemented with 0.05% Trypsin-EDTA (Nacalai Tesque, 32778-34) and incubated for 5 minutes at 37° C. (5% CO2). The cells were then suspended in a medium, and collected by centrifugation at 1500 rpm for 3 minutes. DMEM (Nacalai Tesque, 08456-36)+10% FBS (Biowest, S1820-500)+1% P/S (Nacalai Tesque, 26252-94) was used as the medium.
iFECDs were seeded on a 12-well plate at a ratio of 7×10^4 cells per well and cultured for 24 hours at 37° C. (5% CO2) (DMEM+10% FBS+1% P/S was used as the medium). After 24 hours, the medium was removed. Rapamycin was added to culture the cells for 24 hours. (DMEM+2% FBS+1% P/S was used as the medium). After 24 hours, the medium was removed. A medium containing 10 ng/ml of Recombinant Human TGF-β2 (Wako, 200-19911) and rapamycin was added to culture the cells for 24 hours. […]
8 μg of the extracted protein was separated by SDS-PAGE and transferred onto a nitrocellulose membrane. […] The detected band strength was analyzed with a lumino image analyzer LAS-4000 mini (Fuji Film) and ImageQuant™ software (GE Healthcare). […]

mTOR siRNA: siRNA against mTOR gene (Ambion, AS026M0L); sense strand SEQ ID NO: 1, antisense strand SEQ ID NO: 2 (sense CAUUCGCAUUCAGUCCAUATT; antisense UAUGGACUGAAUGCGAAUGAT; chemistry not given here)
phosphorylation of S6K at protein level, western blot: suppressed
